Experimental data: patent publication US20260262643A1, “HERBICIDAL BENZOXAZINES” (FMC CORPORATION, priority 2022, published 2026)

Experiments:
[1] = test system: ryegrass, Italian; assay: Test C preemergence; assay type: in vivo, Lolium multiflorum; conditions: 0 to 100 scale (0 no effect, 100 complete control); for Plant response rating, Ryegrass, Italian: Preemergence, 500 g ai/ha, visual rating after 10 days; for Ryegrass, Italian plant response rating: Test C, preemergence, 125 g ai/ha
Summary of the method: (§1)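 Pre: seeds in loam/sand, directed soil spray. Post: 1–2 leaf plants, 2–10 cm. Cmpd in non-phytotoxic solvent + surfactant. Greenhouse 10 d; visual rating vs untreated, 0 = none, 100 = complete control.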

[2] = test system: pigweed, palmer; assay: Test C preemergence; assay type: in vivo, Amaranthus palmeri; conditions: 0 to 100 scale (0 no effect, 100 complete control); for Plant response rating, Pigweed, Palmer: Preemergence, 500 g ai/ha, visual rating after 10 days; for Pigweed, Palmer plant response rating: Test C, preemergence, 125 g ai/ha
Summary of the method: as §1

[3] = test system: oat, wild; assay: Test C postemergence; assay type: in vivo, Avena fatua; conditions: 10 days
Summary of the method: as §1

[4] = test system: corn; assay: Test C postemergence; assay type: in vivo, Zea mays; conditions: 10 days
Summary of the method: as §1

[5] = test system: soybean; assay: Test C postemergence; assay type: in vivo, Glycine max; conditions: 10 days
Summary of the method: as §1

[6] = test system: rice; assay: Test D flooded paddy test; assay type: in vivo, Oryza sativa; conditions: 250 g ai/ha, applied to paddy water, visual rating after 13 to 14 days, scale 0 to 100 (0 no effect, 100 complete control)
Summary of the method: (§2)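 Visual ratings from 0, meaning no effect, to 100, meaning complete control, were assigned against untreated controls 13 to 14 days after compounds were added to the floodwater of pots kept 3 cm deep, with plants at the 2-leaf stage.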

[7] = test system: ryegrass, Italian; assay: Test C postemergence; assay type: in vivo, Lolium multiflorum; conditions: 10 days
Summary of the method: as §1

[8] = test system: barnyardgrass; assay: Test D flooded paddy test; assay type: in vivo, Echinochloa crus-galli; conditions: 250 g ai/ha, applied to paddy water, visual rating after 13 to 14 days, scale 0 to 100 (0 no effect, 100 complete control)
Summary of the method: as §2

[9] = test system: green foxtail; assay: Test C postemergence; assay type: in vivo, Setaria viridis; conditions: 10 days
Summary of the method: as §1

[10] = test system: barnyardgrass; assay: Test C postemergence; assay type: in vivo, Echinochloa crusgalli; conditions: 10 days
Summary of the method: as §1

[11] = test system: wheat; assay: Test C preemergence; assay type: in vivo, Triticum aestivum; conditions: 0 to 100 scale (0 no effect, 100 complete control); for Plant response rating, Wheat: Preemergence, 500 g ai/ha, visual rating after 10 days; for Wheat plant response rating: Test C, preemergence, 125 g ai/ha
Summary of the method: as §1

[12] = test system: ducksalad; assay: Test D flooded paddy test; assay type: in vivo, Heteranthera limosa; conditions: 250 g ai/ha, applied to paddy water, visual rating after 13 to 14 days, scale 0 to 100 (0 no effect, 100 complete control)
Summary of the method: as §2

[13] = test system: pigweed, palmer; assay: Test C postemergence; assay type: in vivo, Amaranthus palmeri; conditions: 10 days
Summary of the method: as §1

[14] = test system: kochia; assay: Test C postemergence; assay type: in vivo, Bassia scoparia; conditions: 10 days
Summary of the method: as §1

[15] = test system: ragweed; assay: Test C preemergence; assay type: in vivo, Ambrosia artemisiifolia; conditions: 0 to 100 scale (0 no effect, 100 complete control); for Plant response rating, Ragweed: Preemergence, 500 g ai/ha, visual rating after 10 days; for Ragweed plant response rating: Test C, preemergence, 125 g ai/ha
Summary of the method: as §1

[16] = test system: blackgrass; assay: Test C preemergence; assay type: in vivo, Alopecurus myosuroides; conditions: 0 to 100 scale (0 no effect, 100 complete control); for Plant response rating, Blackgrass: Preemergence, 500 g ai/ha, visual rating after 10 days; for Blackgrass plant response rating: Test C, preemergence, 125 g ai/ha
Summary of the method: as §1

[17] = test system: blackgrass; assay: Test C postemergence; assay type: in vivo, Alopecurus myosuroides; conditions: 10 days
Summary of the method: as §1

[18] = test system: green foxtail; assay: Test C preemergence; assay type: in vivo, Setaria viridis; conditions: 0 to 100 scale (0 no effect, 100 complete control); for Plant response rating, Foxtail, Green: Preemergence, 500 g ai/ha, visual rating after 10 days; for Foxtail, Green plant response rating: Test C, preemergence, 125 g ai/ha
Summary of the method: as §1

[19] = test system: galium; assay: Test C postemergence; assay type: in vivo, Galium aparine; conditions: 10 days
Summary of the method: as §1

[20] = test system: barnyardgrass; assay: Test C preemergence; assay type: in vivo, Echinochloa crusgalli; conditions: 0 to 100 scale (0 no effect, 100 complete control); for Barnyardgrass plant response rating: 125 g ai/ha, preemergence; for Plant response rating, Barnyardgrass: Preemergence, 500 g ai/ha, visual rating after 10 days
Summary of the method: as §1

[21] = test system: wheat; assay: Test C postemergence; assay type: in vivo, Triticum aestivum; conditions: 10 days
Summary of the method: as §1

[22] = test system: oat, wild; assay: Test C preemergence; assay type: in vivo, Avena fatua; conditions: 0 to 100 scale (0 no effect, 100 complete control); for Plant response rating, Oat, Wild: Preemergence, 500 g ai/ha, visual rating after 10 days; for Oat, Wild plant response rating: Test C, preemergence, 125 g ai/ha
Summary of the method: as §1

[23] = test system: ragweed; assay: Test C postemergence; assay type: in vivo, Ambrosia artemisiifolia; conditions: 10 days
Summary of the method: as §1

[24] = test system: sedge, umbrella; assay: Test D flooded paddy test; assay type: in vivo, Cyperus difformis; conditions: 250 g ai/ha, applied to paddy water, visual rating after 13 to 14 days, scale 0 to 100 (0 no effect, 100 complete control)
Summary of the method: as §2

[25] = test system: horseweed; assay: Test C postemergence; assay type: in vivo, Erigeron canadensis; conditions: 10 days
Summary of the method: as §1

[26] = test system: corn; assay: Test C preemergence; assay type: in vivo, Zea mays; conditions: 0 to 100 scale (0 no effect, 100 complete control); for Plant response rating, Corn: Preemergence, 500 g ai/ha, visual rating after 10 days; for Corn plant response rating: Test C, preemergence, 125 g ai/ha
Summary of the method: as §1

[27] = test system: kochia; assay: Test C preemergence; assay type: in vivo, Bassia scoparia; conditions: 0 to 100 scale (0 no effect, 100 complete control); for Plant response rating, Kochia: Preemergence, 500 g ai/ha, visual rating after 10 days; for Kochia plant response rating: Test C, preemergence, 125 g ai/ha
Summary of the method: as §1

[28] = test system: soybean; assay: Test C preemergence; assay type: in vivo, Glycine max; conditions: 0 to 100 scale (0 no effect, 100 complete control); for Plant response rating, Soybean: Preemergence, 500 g ai/ha, visual rating after 10 days; for Soybean plant response rating: Test C, preemergence, 125 g ai/ha
Summary of the method: as §1

[29] = 125 g ai/ha, postemergence, 0 to 100 scale, 0 no effect, 100 complete control
[30] = Postemergence, 500 g ai/ha, visual 0 to 100 scale (0 no effect, 100 complete control)

C[C@H]1CN(C(=O)c2cc(-n3cncn3)cc3c2OCCO3)c2cccc(Cl)c2O1 [Compound 153]
Plant response rating, Ryegrass, Italian [1]: 90 | Ryegrass, Italian plant response rating [1]: 90 | Plant response rating, Pigweed, Palmer [2]: 100 | Pigweed, Palmer plant response rating [2]: 100 | Plant response rating, Oat, Wild [3, 29]: 50 | Plant response rating, Oat, Wild [3, 30]: 70 | Plant response rating, Corn [4, 29]: 80 | Plant response rating, Corn [4, 30]: 90 | Plant response rating, Soybean [5, 29]: 100 | Plant response rating, Soybean [5, 30]: 100 | Plant response rating, Rice (Flood) [6]: 15 | Plant response rating, Ryegrass, Italian [7, 29]: 90 | Plant response rating, Ryegrass, Italian [7, 30]: 100 | Plant response rating, Barnyardgrass (Flood) [8]: 35 | Plant response rating, Foxtail, Green [9, 29]: 90 | Plant response rating, Foxtail, Green [9, 30]: 90 | Plant response rating, Barnyardgrass [10, 29]: 90 | Plant response rating, Barnyardgrass [10, 30]: 90 | Plant response rating, Wheat [11]: 90 | Wheat plant response rating [11]: 20 | Plant response rating, Ducksalad (Flood) [12]: 70 | Plant response rating, Pigweed, Palmer [13, 29]: 70 | Plant response rating, Pigweed, Palmer [13, 30]: 100 | Plant response rating, Kochia [14, 29]: 60 | Plant response rating, Kochia [14, 30]: 90 | Plant response rating, Ragweed [15]: 100 | Ragweed plant response rating [15]: 80 | Plant response rating, Blackgrass [16]: 60 | Blackgrass plant response rating [16]: 20 | Plant response rating, Blackgrass [17, 29]: 90 | Plant response rating, Blackgrass [17, 30]: 90 | Plant response rating, Foxtail, Green [18]: 100 | Foxtail, Green plant response rating [18]: 100 | Plant response rating, Galium [19, 29]: 90 | Plant response rating, Galium [19, 30]: 100 | Barnyardgrass plant response rating [20]: 80 | Plant response rating, Barnyardgrass [20]: 100 | Plant response rating, Wheat [21, 29]: 90 | Plant response rating, Wheat [21, 30]: 90 | Plant response rating, Oat, Wild [22]: 80 | Oat, Wild plant response rating [22]: 40 | Plant response rating, Ragweed [23, 29]: 80 | Plant response rating, Ragweed [23, 30]: 100 | Plant response rating, Sedge, Umbrella (Flood) [24]: 98 | Plant response rating, Horseweed [25, 29]: 60 | Plant response rating, Horseweed [25, 30]: 50 | Plant response rating, Corn [26]: 30 | Corn plant response rating [26]: 10 | Plant response rating, Kochia [27]: 60 | Kochia plant response rating [27]: 0 | Plant response rating, Soybean [28]: 100 | Soybean plant response rating [28]: 100

C[C@H]1CN(C(=O)c2cc(-n3cnc(C(C)(C)C)n3)cc3c2OCCO3)c2cccc(Cl)c2O1 [Compound 154]
Plant response rating, Ryegrass, Italian [1]: 90 | Ryegrass, Italian plant response rating [1]: 70 | Plant response rating, Pigweed, Palmer [2]: 100 | Pigweed, Palmer plant response rating [2]: 100 | Plant response rating, Oat, Wild [3, 29]: 10 | Plant response rating, Oat, Wild [3, 30]: 20 | Plant response rating, Corn [4, 29]: 20 | Plant response rating, Corn [4, 30]: 50 | Plant response rating, Soybean [5, 29]: 90 | Plant response rating, Soybean [5, 30]: 100 | Plant response rating, Rice (Flood) [6]: 10 | Plant response rating, Ryegrass, Italian [7, 29]: 30 | Plant response rating, Ryegrass, Italian [7, 30]: 70 | Plant response rating, Barnyardgrass (Flood) [8]: 15 | Plant response rating, Foxtail, Green [9, 29]: 40 | Plant response rating, Foxtail, Green [9, 30]: 90 | Plant response rating, Barnyardgrass [10, 29]: 20 | Plant response rating, Barnyardgrass [10, 30]: 50 | Plant response rating, Wheat [11]: 60 | Wheat plant response rating [11]: 10 | Plant response rating, Ducksalad (Flood) [12]: 10 | Plant response rating, Pigweed, Palmer [13, 29]: 90 | Plant response rating, Pigweed, Palmer [13, 30]: 100 | Plant response rating, Kochia [14, 29]: 100 | Plant response rating, Kochia [14, 30]: 100 | Plant response rating, Ragweed [15]: 100 | Ragweed plant response rating [15]: 50 | Plant response rating, Blackgrass [16]: 60 | Blackgrass plant response rating [16]: 20 | Plant response rating, Blackgrass [17, 29]: 20 | Plant response rating, Blackgrass [17, 30]: 90 | Plant response rating, Foxtail, Green [18]: 100 | Foxtail, Green plant response rating [18]: 100 | Plant response rating, Galium [19, 29]: 100 | Plant response rating, Galium [19, 30]: 100 | Barnyardgrass plant response rating [20]: 70 | Plant response rating, Barnyardgrass [20]: 100 | Plant response rating, Wheat [21, 29]: 10 | Plant response rating, Wheat [21, 30]: 30 | Plant response rating, Oat, Wild [22]: 30 | Oat, Wild plant response rating [22]: 20 | Plant response rating, Ragweed [23, 29]: 100 | Plant response rating, Ragweed [23, 30]: 100 | Plant response rating, Sedge, Umbrella (Flood) [24]: 70 | Plant response rating, Horseweed [25, 29]: 80 | Plant response rating, Horseweed [25, 30]: 70 | Plant response rating, Corn [26]: 30 | Corn plant response rating [26]: 0 | Plant response rating, Kochia [27]: 100 | Kochia plant response rating [27]: 100 | Plant response rating, Soybean [28]: 100 | Soybean plant response rating [28]: 40
